{
  "source": "patent US11116771B2",
  "about": "“G protein-coupled receptor (GPCR) modulation by imipridones” (Oncoceutics, Inc., priority 2016, dated 2021)",
  "key": {"[1]": {"target": "DRD2 alanine-scan mutation library (Homo sapiens, UniProt P14416, V196A)", "sequence (P14416 whole entry V196A)": "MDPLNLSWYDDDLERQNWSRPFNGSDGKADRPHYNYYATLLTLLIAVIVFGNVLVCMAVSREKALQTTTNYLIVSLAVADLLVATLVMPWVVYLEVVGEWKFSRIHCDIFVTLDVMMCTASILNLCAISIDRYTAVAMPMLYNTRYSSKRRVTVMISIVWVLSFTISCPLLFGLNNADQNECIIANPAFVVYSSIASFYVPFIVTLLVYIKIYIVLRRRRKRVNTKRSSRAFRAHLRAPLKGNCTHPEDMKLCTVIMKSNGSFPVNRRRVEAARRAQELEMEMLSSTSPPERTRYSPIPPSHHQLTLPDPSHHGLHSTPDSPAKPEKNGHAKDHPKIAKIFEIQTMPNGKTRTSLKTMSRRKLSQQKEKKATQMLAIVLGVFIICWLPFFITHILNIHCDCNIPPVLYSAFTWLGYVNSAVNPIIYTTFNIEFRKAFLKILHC"}, "[2]": {"target": "DRD2 alanine-scan mutation library (Homo sapiens, UniProt P14416, E95A)", "sequence (P14416 whole entry E95A)": "as the sequence (P14416 whole entry V196A) above, with E95A, A196V counted along it"}, "[3]": {"target": "DRD2 alanine-scan mutation library (Homo sapiens, UniProt P14416, L81A)", "sequence (P14416 whole entry L81A)": "as the sequence (P14416 whole entry V196A) above, with L81A, A196V counted along it"}, "[4]": {"target": "DRD2 alanine-scan mutation library (Homo sapiens, UniProt P14416, V91A)", "sequence (P14416 whole entry V91A)": "as the sequence (P14416 whole entry V196A) above, with V91A, A196V counted along it"}, "[5]": {"target": "DRD2 alanine-scan mutation library (Homo sapiens, UniProt P14416, A177S)", "sequence (P14416 whole entry A177S)": "as the sequence (P14416 whole entry V196A) above, with A177S, A196V counted along it"}, "[6]": {"target": "DRD2 alanine-scan mutation library (Homo sapiens, UniProt P14416, T165A)", "sequence (P14416 whole entry T165A)": "as the sequence (P14416 whole entry V196A) above, with T165A, A196V counted along it"}, "[7]": {"target": "DRD2 alanine-scan mutation library (Homo sapiens, UniProt P14416, Y192A)", "sequence (P14416 whole entry Y192A)": "as the sequence (P14416 whole entry V196A) above, with Y192A, A196V counted along it"}, "[8]": {"target": "DRD2 alanine-scan mutation library (Homo sapiens, UniProt P14416, I397A)", "sequence (P14416 whole entry I397A)": "as the sequence (P14416 whole entry V196A) above, with A196V, I397A counted along it"}, "control GPCR": {"tested_on": "control GPCR", "conditions": "100 μM ONC201"}, "[9]": {"experiment": "Rat non-GLP oral single dose study", "assay_type": "in vivo", "conditions": "in vivo; rat non-GLP oral single dose study; read-out: NOAEL"}, "HCT116, MDA-MB-231, U87 [10]": {"tested_on": "HCT116, MDA-MB-231, U87", "conditions": "about 1-5 mg/mL of ONC201, 72 hours"}, "HCT116, MDA-MB-231, U87 [11]": {"tested_on": "HCT116, MDA-MB-231, U87", "experiment": "cells", "conditions": "Homo sapiens, 72 h, read-out: viability of tumor cells"}, "[12]": {"tested_on": "nuclear hormone receptors", "conditions": "ONC201 2 or 20 μM (FIG. 5D)"}, "prolactin": {"tested_on": "prolactin", "conditions": "advanced solid tumors, ELISA in peripheral blood after ONC201"}, "DRD1": {"target": "DRD1 (Homo sapiens, UniProt P21728)", "sequence (P21728 whole entry)": "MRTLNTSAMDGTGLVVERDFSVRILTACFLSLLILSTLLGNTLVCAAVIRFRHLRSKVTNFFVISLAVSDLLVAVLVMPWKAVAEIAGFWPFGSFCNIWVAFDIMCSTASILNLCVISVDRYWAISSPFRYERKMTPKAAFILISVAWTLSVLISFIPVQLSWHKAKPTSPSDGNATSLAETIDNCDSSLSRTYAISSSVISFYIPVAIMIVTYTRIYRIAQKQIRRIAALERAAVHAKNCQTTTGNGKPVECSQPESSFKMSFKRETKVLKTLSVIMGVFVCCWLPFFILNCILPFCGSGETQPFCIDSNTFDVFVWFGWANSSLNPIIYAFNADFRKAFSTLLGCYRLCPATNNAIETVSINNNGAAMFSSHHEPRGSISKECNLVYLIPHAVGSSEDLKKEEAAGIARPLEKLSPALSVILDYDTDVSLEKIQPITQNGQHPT", "conditions": "arrestin recruitment reporter assay"}, "[13]": {"tested_on": "Staphylococcus aureus ATCC 33591", "experiment": "MIC by micro-broth dilution, S. aureus ATCC 33591", "assay_type": "cell-based", "conditions": "Staphylococcus aureus"}, "in vitro": {"experiment": "in vitro", "conditions": "human, Cell viability of normal cells, about 1-5 mg/mL of ONC201, 72 hours"}, "kinome": {"tested_on": "kinome", "conditions": "in vitro kinase enzymatic activity, ONC201 1 μM (FIG. 5E)"}, "DRD5": {"target": "DRD5 (Homo sapiens, UniProt P21918)", "sequence (P21918 whole entry)": "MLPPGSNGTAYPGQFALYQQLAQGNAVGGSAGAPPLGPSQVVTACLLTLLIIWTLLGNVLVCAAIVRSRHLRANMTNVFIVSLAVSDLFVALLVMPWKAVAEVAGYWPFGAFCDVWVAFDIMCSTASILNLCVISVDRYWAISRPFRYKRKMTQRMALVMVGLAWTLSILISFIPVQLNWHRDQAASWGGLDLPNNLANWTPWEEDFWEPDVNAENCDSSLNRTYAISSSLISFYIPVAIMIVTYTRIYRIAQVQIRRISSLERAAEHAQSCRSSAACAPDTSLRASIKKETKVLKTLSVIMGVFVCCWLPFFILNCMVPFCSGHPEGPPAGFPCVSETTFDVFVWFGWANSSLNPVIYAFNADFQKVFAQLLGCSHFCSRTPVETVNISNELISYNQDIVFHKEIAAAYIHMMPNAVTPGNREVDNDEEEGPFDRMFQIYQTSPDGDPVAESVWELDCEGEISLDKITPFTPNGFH", "experiment": "β-arrestin recruitment GPCR reporter assay, DRD5", "assay_type": "cell-based"}, "[14]": {"tested_on": "Staphylococcus aureus ATCC 700699", "experiment": "MIC by micro-broth dilution, S. aureus ATCC 700699", "assay_type": "cell-based", "conditions": "Staphylococcus aureus"}, "MV411 AML cells": {"tested_on": "MV411 AML cells", "experiment": "Cell viability, MV411 AML cells", "assay_type": "cell-based"}, "[15]": {"tested_on": "Staphylococcus aureus ATCC 29213", "experiment": "MIC by micro-broth dilution, S. aureus ATCC 29213", "assay_type": "cell-based", "conditions": "Staphylococcus aureus"}, "DRD4": {"target": "DRD4 (Homo sapiens, UniProt P21917)", "sequence (P21917 whole entry)": "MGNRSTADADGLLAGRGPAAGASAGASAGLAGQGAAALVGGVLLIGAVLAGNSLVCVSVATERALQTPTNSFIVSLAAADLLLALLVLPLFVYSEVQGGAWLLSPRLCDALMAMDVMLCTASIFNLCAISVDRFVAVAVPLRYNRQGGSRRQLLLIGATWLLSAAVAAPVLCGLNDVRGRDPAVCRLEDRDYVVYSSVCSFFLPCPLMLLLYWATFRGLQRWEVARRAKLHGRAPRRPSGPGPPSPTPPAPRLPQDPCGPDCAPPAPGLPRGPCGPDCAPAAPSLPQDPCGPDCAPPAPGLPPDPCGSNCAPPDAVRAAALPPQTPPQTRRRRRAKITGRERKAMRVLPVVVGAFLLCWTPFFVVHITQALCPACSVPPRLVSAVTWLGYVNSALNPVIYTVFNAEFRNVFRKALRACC", "conditions": "arrestin recruitment reporter assay"}, "human DRD2 [16]": {"target": "T1, human DRD2 (Homo sapiens, UniProt P14416)", "T1 sequence (P14416 whole entry)": "as the sequence (P14416 whole entry V196A) above, with A196V counted along it"}, "human DRD2 [17]": {"target": "T1, human DRD2", "experiment": "cell-based", "conditions": "HEK-293T, read-out: inhibition of the DRD2 dopamine response"}, "DRD2L": {"target": "DRD2L (Homo sapiens, UniProt P14416)", "sequence (P14416 whole entry)": "as the sequence (P14416 whole entry V196A) above, with A196V counted along it", "experiment": "Gaddum/Schild analysis of arrestin recruitment to DRD2L", "assay_type": "cell-based", "conditions": "arrestin recruitment / cAMP reporters (FIGS. 5B, 5C, 5F)"}, "[18]": {"tested_on": "DRD2 (short and long isoforms)", "experiment": "β-arrestin recruitment GPCR reporter assay, DRD2", "assay_type": "cell-based"}, "MV411 AML xenograft": {"tested_on": "MV411 AML xenograft", "experiment": "MV411 AML xenograft model", "assay_type": "in vivo, athymic nude mice", "conditions": "oral weekly administration; ONC212 50 mg/kg, ONC201 at similar doses (FIG. 30A)"}},
  "note": "“Also recorded” adds a separate entry of the source. Where two headings read alike, the source gives them in different places.",
  "data": [
    {"molecule": "Cc1ccccc1CN1C(=O)C2=C(CCN(Cc3ccccc3)C2)N2CCN=C12", "note": "[ONC201, 7-benzyl-4-(2-methylbenzyl)-1,2,6,7,8,9-hexahydroimidazo [1,2-a]pyrido [3,4-e]pyrimidin-5(1H)-one]", "values": [
      {"measurement": "Calcium Flux as a % of flux with WT DRD2 (100), ONC201 100 μM", "setting": "[1]", "result": 79, "unit": "%"},
      {"measurement": "Calcium Flux as a % of flux with WT DRD2 (100), ONC201 250 μM", "setting": "[1]", "result": 22, "unit": "%"},
      {"measurement": "Calcium Flux as a % of flux with WT DRD2 (100), ONC201 100 μM", "setting": "[2]", "result": 97, "unit": "%"},
      {"measurement": "Calcium Flux as a % of flux with WT DRD2 (100), ONC201 250 μM", "setting": "[2]", "result": 39, "unit": "%"},
      {"measurement": "Calcium Flux as a % of flux with WT DRD2 (100), ONC201 100 μM", "setting": "[3]", "result": 63, "unit": "%"},
      {"measurement": "Calcium Flux as a % of flux with WT DRD2 (100), ONC201 250 μM", "setting": "[3]", "result": 20, "unit": "%"},
      {"measurement": "Calcium Flux as a % of flux with WT DRD2 (100), ONC201 100 μM", "setting": "[4]", "result": 94, "unit": "%"},
      {"measurement": "Calcium Flux as a % of flux with WT DRD2 (100), ONC201 250 μM", "setting": "[4]", "result": 58, "unit": "%"},
      {"measurement": "Calcium Flux as a % of flux with WT DRD2 (100), ONC201 100 μM", "setting": "[5]", "result": 77, "unit": "%"},
      {"measurement": "Calcium Flux as a % of flux with WT DRD2 (100), ONC201 250 μM", "setting": "[5]", "result": 26, "unit": "%"},
      {"measurement": "Calcium Flux as a % of flux with WT DRD2 (100), ONC201 100 μM", "setting": "[6]", "result": 67, "unit": "%"},
      {"measurement": "Calcium Flux as a % of flux with WT DRD2 (100), ONC201 250 μM", "setting": "[6]", "result": 28, "unit": "%"},
      {"measurement": "Calcium Flux as a % of flux with WT DRD2 (100), ONC201 100 μM", "setting": "[7]", "result": 85, "unit": "%"},
      {"measurement": "Calcium Flux as a % of flux with WT DRD2 (100), ONC201 250 μM", "setting": "[7]", "result": 11, "unit": "%"},
      {"measurement": "Calcium Flux as a % of flux with WT DRD2 (100), ONC201 100 μM", "setting": "[8]", "result": 122, "unit": "%"},
      {"measurement": "Calcium Flux as a % of flux with WT DRD2 (100), ONC201 250 μM", "setting": "[8]", "result": 89, "unit": "%"},
      {"measurement": "effect on calcium flux of control GPCR", "setting": "control GPCR", "result": "no effect"},
      {"measurement": "NOAEL", "setting": "[9]", "result": 225, "unit": "mg/kg"},
      {"measurement": "viability of tumor cells", "setting": "HCT116, MDA-MB-231, U87 [10]", "result": "≤ 50", "unit": "%"},
      {"measurement": "viability at 5000 µg/mL", "setting": "HCT116, MDA-MB-231, U87 [11]", "result": "< 25", "unit": "%"},
      {"measurement": "interaction with nuclear hormone receptors", "setting": "[12]", "result": "no significant interactions"},
      {"measurement": "patients exhibiting induction of prolactin", "setting": "prolactin", "result": "10/11"},
      {"measurement": "GPCR activity, DRD1", "setting": "DRD1", "result": "no antagonism"},
      {"measurement": "MIC", "setting": "[13]; ATCC33591", "result": "> 100", "unit": "µg/mL"},
      {"measurement": "MIC99", "setting": "[13]; ATCC33591, 24 h", "result": "> 100", "unit": "µg/mL"},
      {"measurement": "MIC", "setting": "[13]; ATCC33591, 24 h, read-out: MIC95", "result": "> 100", "unit": "µg/mL"},
      {"measurement": "MIC", "setting": "[13]; ATCC33591, 24 h, read-out: MIC, Visual", "result": "> 100", "unit": "µg/mL"},
      {"measurement": "viability at 72 h", "setting": "in vitro", "result": "≥ 75", "unit": "%"},
      {"measurement": "interaction with the kinome", "setting": "kinome", "result": "no significant interactions"},
      {"measurement": "GPCR activity, DRD5", "setting": "DRD5", "result": "no antagonism"},
      {"measurement": "MIC", "setting": "[14]; ATCC700699", "result": "> 100", "unit": "µg/mL"},
      {"measurement": "MIC99", "setting": "[14]; ATCC700699, 48 h", "result": "> 100", "unit": "µg/mL"},
      {"measurement": "MIC", "setting": "[14]; ATCC700699, 48 h, read-out: MIC95", "result": "> 100", "unit": "µg/mL"},
      {"measurement": "MIC", "setting": "[14]; ATCC700699, 48 h, read-out: MIC, Visual", "result": "> 100", "unit": "µg/mL"},
      {"measurement": "exposure required for efficacy", "setting": "MV411 AML cells", "result": "24 to 48", "unit": "h"},
      {"measurement": "MIC", "setting": "[15]; ATCC29213", "result": "> 100", "unit": "µg/mL"},
      {"measurement": "MIC99", "setting": "[15]; ATCC29213, 24 h", "result": "> 100", "unit": "µg/mL"},
      {"measurement": "MIC", "setting": "[15]; ATCC29213, 24 h, read-out: MIC95", "result": "> 100", "unit": "µg/mL"},
      {"measurement": "MIC", "setting": "[15]; ATCC29213, 24 h, read-out: MIC, Visual", "result": "> 100", "unit": "µg/mL"},
      {"measurement": "GPCR activity, DRD4", "setting": "DRD4", "result": "weaker potency"},
      {"measurement": "inhibition of DRD2 dopamine-induced calcium flux", "setting": "human DRD2 [16]", "result": "completely inhibited; also recorded: complete inhibition"},
      {"measurement": "inhibition at 100 µM", "setting": "human DRD2 [17]", "result": "> 95", "unit": "%"},
      {"measurement": "antagonism of DRD2L", "setting": "DRD2L", "result": "direct, competitive antagonism"},
      {"measurement": "GPCR activity, DRD2", "setting": "[18]", "result": "selectively antagonizes; also recorded: antagonized"},
      {"measurement": "leukemia xenograft tumor growth", "setting": "MV411 AML xenograft", "result": "not efficacious"}
    ]}
  ]
}
